Assay results published in ChEMBL document CHEMBL1250456, “Synthesis and binding ability of 1,2,3-triazole-based triterpenoid receptors for recognition of Hg(2+) ion” (Bioorg Med Chem Lett, 2010).
Active and inactive are the calls of the source. The calls are words filed in the database; no cut-off is given here.

How the values were obtained:
[1] = Binding affinity to zinc ion by UV-vis titration analysis
[2] = Binding affinity to magnesium ion by UV-vis titration analysis
[3] = Binding affinity to cadmium ion by UV-vis titration analysis
[4] = Binding affinity to copper ion by Hildebrand-Benesi equation analysis
[5] = Binding affinity to mercury ion by Hildebrand-Benesi equation analysis

| Activity [1] | Activity [2] | Activity [3] | Ka [4] [×10³ /M] | Ka [5] [×10⁴ /M] | SMILES |
| --- | --- | --- | --- | --- | --- |
| inactive | inactive | inactive | 5 | 2.7 | COC(=O)[C@@]1(C)CC[C@]2(C)CC[C@]3(C)C(=CC(=O)[C@@H]4[C@@]5(C)C[C@H](OC(=O)Cn6cc(COc7ccc8ccccc8c7C=O)nn6)[C@@H](OC(=O)Cn6cc(COc7ccc8ccccc8c7C=O)nn6)C(C)(C)[C@@H]5CC[C@]43C)[C@@H]2C1 |
| inactive | inactive | inactive | 1.6 | 3 | COC(=O)[C@@]1(C)CC[C@]2(C)CC[C@]3(C)C(=CC(=O)[C@@H]4[C@@]5(C)C[C@H](OC(=O)Cn6cc(COc7ccccc7C=O)nn6)[C@@H](OC(=O)Cn6cc(COc7ccccc7C=O)nn6)C(C)(C)[C@@H]5CC[C@]43C)[C@@H]2C1 |
